Biological target: T1, rmC1 (recombinant murine 18.5-kDa myelin basic protein, C1 charge component); rmC8 is its six-fold Gln variant (Mus musculus, UniProt P04370)
T1 construct: gene Mbp
Assay: fluorescence, FRET from Trp to mant (ex […] nm, em […] nm)
Format: binding
Conditions: 0.25 µM rmC1, 0.5-12.5 µM nucleotide, 10 mM HEPES pH 7.5; labelled compound

T1 sequence (P04370 1-169 isoform P04370-5 limits assumed): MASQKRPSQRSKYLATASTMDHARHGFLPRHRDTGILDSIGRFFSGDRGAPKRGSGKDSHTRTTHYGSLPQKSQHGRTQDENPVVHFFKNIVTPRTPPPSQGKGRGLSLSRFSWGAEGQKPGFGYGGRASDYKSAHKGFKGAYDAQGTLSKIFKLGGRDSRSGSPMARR

Question: `CNc1ccccc1C(=O)O[C@H]1[C@@H](O)[C@H](n2cnc3c(N)ncnc32)O[C@@H]1COP(=O)(O)OP(=O)(O)OP(=O)(O)O` [mant-ATP] was tested. Which “fluorescence, FRET from Trp to mant (ex 280 nm, em 448 nm)” value did it give?
Answer: while both mant-ATP and mant-GTP bound to rmC1, mant-AMP did not
